Data set [1] addresses T1, Urotensin-2 receptor (Homo sapiens, UniProt Q9UKP6).
T1 sequence (Q9UKP6 whole entry): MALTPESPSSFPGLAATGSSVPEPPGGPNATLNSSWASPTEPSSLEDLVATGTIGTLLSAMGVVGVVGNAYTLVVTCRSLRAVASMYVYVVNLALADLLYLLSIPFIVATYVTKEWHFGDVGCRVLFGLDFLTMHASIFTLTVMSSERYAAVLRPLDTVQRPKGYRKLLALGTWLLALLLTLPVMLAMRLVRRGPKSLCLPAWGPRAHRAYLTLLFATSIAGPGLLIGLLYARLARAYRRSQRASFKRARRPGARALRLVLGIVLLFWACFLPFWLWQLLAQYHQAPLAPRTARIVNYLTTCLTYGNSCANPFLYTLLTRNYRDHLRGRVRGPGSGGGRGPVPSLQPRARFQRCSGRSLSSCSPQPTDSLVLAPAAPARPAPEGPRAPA
Put plainly: Potency against human Urotensin 2 receptor.

Data set [2] can be described thus: Lipophilicity of the compound. The data set is classed as physicochemical. To be noted: octanol/water.
Data set [3] is described as follows: Dissociation constant of the compound. The data set is classed as physicochemical.
For data set [4], the target named is T2, Urotensin-2 receptor (Rattus norvegicus, UniProt P49684).
T2 sequence (P49684 whole entry): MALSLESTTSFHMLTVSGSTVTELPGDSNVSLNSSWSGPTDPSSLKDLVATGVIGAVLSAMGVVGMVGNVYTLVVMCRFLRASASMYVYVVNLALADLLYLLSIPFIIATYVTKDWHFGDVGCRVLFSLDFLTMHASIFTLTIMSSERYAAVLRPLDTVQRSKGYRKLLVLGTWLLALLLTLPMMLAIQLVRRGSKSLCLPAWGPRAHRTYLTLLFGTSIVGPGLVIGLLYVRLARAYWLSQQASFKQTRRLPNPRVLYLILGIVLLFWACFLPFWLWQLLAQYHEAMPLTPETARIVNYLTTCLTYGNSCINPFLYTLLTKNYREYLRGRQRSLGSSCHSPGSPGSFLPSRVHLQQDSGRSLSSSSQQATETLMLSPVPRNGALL
Briefly: Potency against rat Urotensin 2 receptor.

The compound `CN(C)CCC1(c2ccc(Cl)cc2)Cc2ccccc2C(=O)O1` (single isomer, unassigned; (+)) showed an EC50 on Urotensin-2 receptor [1] of 251 nM.

`CN(C)CCC1(c2ccc(Cl)cc2)Cc2ccccc2C(=O)O1` (stereo in doubt; 1) showed a logD in data set [2] of 2.1. Further, in data set [3], the pKa was found to be 8.7. Moreover, the EC50 is 316 nM at Urotensin-2 receptor [1] and 200 nM at Urotensin-2 receptor [4].

The values above are taken from ChEMBL document CHEMBL1135608, “Discovery of the first nonpeptide agonist of the GPR14/urotensin-II receptor: 3-(4-chlorophenyl)-3-(2- (dimethylamino)ethyl)isochroman-1-one (AC-7954)” (J Med Chem, 2002).
